# Experimental data taken from PubChem BioAssay (NCI).
#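 Following 48 hours of exposure in 96-well plates, responses at five concentrations were used to interpolate endpoints linearly. GI50 marks 50% less growth. The concentration for full growth arrest is given as TGI.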
# Tested on: HOP-18 NSCLC
# Experiment: NCI tumour cell line growth inhibition, 48 h
row,SMILES,TGI
1,CCC(/C=C/C1OC(=O)C=CC1C)=C\C(C)C/C=C/C(C)=C/C(C)C(=O)C(C)C(O)C(C)C/C(C)=C/C(=O)O (configuration not stated),16.3 µM
2,CC1(C)N=C(N)N=C(N)N1c1ccc(CCc2ccccc2)cc1,97.3 µM
3,O=C(O)CCC(NC(=O)c1ccc(Nc2nc3cc(C(F)(F)F)ccc3nc2-c2ccccc2)cc1)C(=O)O (configuration not stated),> 100 µM
4,NCc1ccccc1-c1c2nc(c(-c3ccccc3CN)c3ccc([nH]3)c(-c3ccccc3CN)c3nc(c(-c4ccccc4CN)c4ccc1[nH]4)C=C3)C=C2,8.81 µM

# Tested on: NCI-H460 lung
# Experiment: NCI tumour cell line growth inhibition, 48 h
SMILES,TGI,GI50
Cn1c(=O)c(-c2ccccc2)c(N=[N+]=[N-])c2ccccc21,> 100 µM,
CC1(C)N=C(N)N=C(N)N1c1ccc(CCc2ccccc2)cc1,> 100 µM,
CN(C)CCCN1CCC2(CCC(C(C)(C)C)CC2)CC1,2.36 µM,
Cc1[nH]nc(C(F)(F)F)c1N=NN1CCOCC1,17.1 µM,
C=C(C)[C@@H]1CC[C@]2(C(=O)NC3CCCCC3)CC[C@]3(C)[C@H](CC[C@@H]4[C@@]5(C)CCCNC(C)(C)[C@@H]5CC[C@]43C)[C@@H]12,3.3 µM,1.78 µM
S=C(S)NCNC(=S)S.[Zn+2],> 100 µM,
CC1(CCOCc2ccccc2)NC(=O)NC1=O (configuration not stated),> 100 µM,
CC(OC(C)(C)C)[C@H](NC(=O)OCC(Cl)(Cl)Cl)C(=O)O (some centres not stated),> 100 µM,
O=C(O)CCC(NC(=O)c1ccc(Nc2nc3cc(C(F)(F)F)ccc3nc2-c2ccccc2)cc1)C(=O)O (configuration not stated),> 100 µM,
c1ccc(CCNc2ccccn2)nc1,> 100 µM,
NCc1ccccc1-c1c2nc(c(-c3ccccc3CN)c3ccc([nH]3)c(-c3ccccc3CN)c3nc(c(-c4ccccc4CN)c4ccc1[nH]4)C=C3)C=C2,66.7 µM,

# Tested on: DMS 273 small cell lung
# Experiment: NCI tumour cell line growth inhibition, 48 h
row,SMILES,TGI
1,CCC(/C=C/C1OC(=O)C=CC1C)=C\C(C)C/C=C/C(C)=C/C(C)C(=O)C(C)C(O)C(C)C/C(C)=C/C(=O)O (configuration not stated),27.1 µM
2,CC1(C)N=C(N)N=C(N)N1c1ccc(CCc2ccccc2)cc1,17.5 µM
3,CC(OC(C)(C)C)[C@H](NC(=O)OCC(Cl)(Cl)Cl)C(=O)O (some centres not stated),> 100 µM
4,O=C(O)CCC(NC(=O)c1ccc(Nc2nc3cc(C(F)(F)F)ccc3nc2-c2ccccc2)cc1)C(=O)O (configuration not stated),46.6 µM
5,NCc1ccccc1-c1c2nc(c(-c3ccccc3CN)c3ccc([nH]3)c(-c3ccccc3CN)c3nc(c(-c4ccccc4CN)c4ccc1[nH]4)C=C3)C=C2,46.4 µM

# Tested on: DMS 114 small cell lung
# Experiment: NCI tumour cell line growth inhibition, 48 h
row,SMILES,TGI
1,CCC(/C=C/C1OC(=O)C=CC1C)=C\C(C)C/C=C/C(C)=C/C(C)C(=O)C(C)C(O)C(C)C/C(C)=C/C(=O)O (configuration not stated),4.18 µM
2,CC1(C)N=C(N)N=C(N)N1c1ccc(CCc2ccccc2)cc1,52.5 µM
3,CC(OC(C)(C)C)[C@H](NC(=O)OCC(Cl)(Cl)Cl)C(=O)O (some centres not stated),> 100 µM
4,O=C(O)CCC(NC(=O)c1ccc(Nc2nc3cc(C(F)(F)F)ccc3nc2-c2ccccc2)cc1)C(=O)O (configuration not stated),> 100 µM

# Tested on: BT-549 breast
# Experiment: NCI tumour cell line growth inhibition, 48 h
row,SMILES,TGI
1,Cn1c(=O)c(-c2ccccc2)c(N=[N+]=[N-])c2ccccc21,> 100 µM
2,CN(C)CCCN1CCC2(CCC(C(C)(C)C)CC2)CC1,24.5 µM
3,Cc1[nH]nc(C(F)(F)F)c1N=NN1CCOCC1,25.1 µM
4,CC1(CCOCc2ccccc2)NC(=O)NC1=O (configuration not stated),> 100 µM
5,c1ccc(CCNc2ccccn2)nc1,> 100 µM

# Tested on: M19-MEL melanoma
# Experiment: NCI tumour cell line growth inhibition, 48 h
row,SMILES,TGI
1,CCC(/C=C/C1OC(=O)C=CC1C)=C\C(C)C/C=C/C(C)=C/C(C)C(=O)C(C)C(O)C(C)C/C(C)=C/C(=O)O (configuration not stated),6.49 µM
2,CC1(C)N=C(N)N=C(N)N1c1ccc(CCc2ccccc2)cc1,38.7 µM
3,CC(OC(C)(C)C)[C@H](NC(=O)OCC(Cl)(Cl)Cl)C(=O)O (some centres not stated),> 100 µM
4,O=C(O)CCC(NC(=O)c1ccc(Nc2nc3cc(C(F)(F)F)ccc3nc2-c2ccccc2)cc1)C(=O)O (configuration not stated),> 100 µM
5,NCc1ccccc1-c1c2nc(c(-c3ccccc3CN)c3ccc([nH]3)c(-c3ccccc3CN)c3nc(c(-c4ccccc4CN)c4ccc1[nH]4)C=C3)C=C2,50.7 µM

# Tested on: ACHN renal
# Experiment: NCI tumour cell line growth inhibition, 48 h
SMILES,TGI,GI50
Cn1c(=O)c(-c2ccccc2)c(N=[N+]=[N-])c2ccccc21,96.3 µM,
CN(C)CCCN1CCC2(CCC(C(C)(C)C)CC2)CC1,18.8 µM,
Cc1[nH]nc(C(F)(F)F)c1N=NN1CCOCC1,17.7 µM,
S=C(S)NCNC(=S)S.[Zn+2],> 100 µM,
CC1(CCOCc2ccccc2)NC(=O)NC1=O (configuration not stated),> 100 µM,
O=C(Cn1c[n+](CC(=O)c2ccc(-c3ccccc3)cc2)c2ccccc21)Nc1cccc2cccnc12,10.7 µM,3.06 µM
CC(OC(C)(C)C)[C@H](NC(=O)OCC(Cl)(Cl)Cl)C(=O)O (some centres not stated),> 100 µM,
c1ccc(CCNc2ccccn2)nc1,> 100 µM,
NCc1ccccc1-c1c2nc(c(-c3ccccc3CN)c3ccc([nH]3)c(-c3ccccc3CN)c3nc(c(-c4ccccc4CN)c4ccc1[nH]4)C=C3)C=C2,35.3 µM,

# Tested on: HS 578T breast
# Experiment: NCI tumour cell line growth inhibition, 48 h
row,SMILES,TGI
1,Cn1c(=O)c(-c2ccccc2)c(N=[N+]=[N-])c2ccccc21,> 100 µM
2,CCC(/C=C/C1OC(=O)C=CC1C)=C\C(C)C/C=C/C(C)=C/C(C)C(=O)C(C)C(O)C(C)C/C(C)=C/C(=O)O (configuration not stated),0.000594 µM
